Data reported in PMC11167047 (Cell Death Discovery, 2024).

Experiments:
Assay in all cases: kinome screen (33PanQinase)
Format in all cases: biochemical
HIPK4 = biological target: T1, HIPK4 (Homo sapiens, UniProt Q8NE63)
T1 construct: purchased Reaction Biology Europe GmbH (formerly ProQinase)
T1 sequence (Q8NE63 1-616): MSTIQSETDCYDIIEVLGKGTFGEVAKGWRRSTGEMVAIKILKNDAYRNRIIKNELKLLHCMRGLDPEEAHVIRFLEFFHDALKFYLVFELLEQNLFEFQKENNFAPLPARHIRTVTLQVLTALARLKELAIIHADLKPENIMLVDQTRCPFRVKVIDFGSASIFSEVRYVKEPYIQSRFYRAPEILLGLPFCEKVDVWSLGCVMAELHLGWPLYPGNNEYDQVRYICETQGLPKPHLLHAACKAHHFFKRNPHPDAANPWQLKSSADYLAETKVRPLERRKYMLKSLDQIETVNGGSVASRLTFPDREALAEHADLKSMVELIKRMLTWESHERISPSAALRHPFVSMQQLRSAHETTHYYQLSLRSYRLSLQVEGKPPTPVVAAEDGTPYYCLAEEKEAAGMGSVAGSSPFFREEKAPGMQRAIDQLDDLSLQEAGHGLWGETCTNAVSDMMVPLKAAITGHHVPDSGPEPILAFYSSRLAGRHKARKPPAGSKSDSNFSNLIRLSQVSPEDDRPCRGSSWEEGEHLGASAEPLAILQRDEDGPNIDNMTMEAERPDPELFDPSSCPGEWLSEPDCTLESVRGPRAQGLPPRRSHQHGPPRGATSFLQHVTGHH
Method: (§1) The Kinome Screening was performed by Reaction Biology Europe GmbH (http://reactionbiology.com; Freiburg i. Br., Germany).

PAK2 = biological target: T2, PAK2 (Homo sapiens, UniProt Q13177)
T2 construct: purchased Reaction Biology Europe GmbH (formerly ProQinase)
Method: as §1

PAK4 = biological target: T3, PAK4 (Homo sapiens, UniProt O96013)
T3 construct: purchased Reaction Biology Europe GmbH (formerly ProQinase)
Method: as §1

EGFR = biological target: T4, EGFR (Homo sapiens, UniProt P00533)
T4 construct: purchased Reaction Biology Europe GmbH (formerly ProQinase)
Method: as §1

PLK3 = biological target: T5, PLK3 (Homo sapiens, UniProt Q9H4B4)
T5 construct: purchased Reaction Biology Europe GmbH (formerly ProQinase)
Method: as §1

FYN = biological target: T6, FYN (Homo sapiens, UniProt P06241)
T6 construct: purchased Reaction Biology Europe GmbH (formerly ProQinase)
Method: as §1

CK1α1 = biological target: T7, CK1α1 (Homo sapiens, UniProt P48729)
T7 construct: purchased Reaction Biology Europe GmbH (formerly ProQinase)
Method: as §1

MAP3K7/MAP3K7IP1 = biological target: T8, MAP3K7/MAP3K7IP1 (Homo sapiens, UniProt O43318)
T8 construct: purchased Reaction Biology Europe GmbH (formerly ProQinase)
T8 sequence (O43318 1-303 limits assumed): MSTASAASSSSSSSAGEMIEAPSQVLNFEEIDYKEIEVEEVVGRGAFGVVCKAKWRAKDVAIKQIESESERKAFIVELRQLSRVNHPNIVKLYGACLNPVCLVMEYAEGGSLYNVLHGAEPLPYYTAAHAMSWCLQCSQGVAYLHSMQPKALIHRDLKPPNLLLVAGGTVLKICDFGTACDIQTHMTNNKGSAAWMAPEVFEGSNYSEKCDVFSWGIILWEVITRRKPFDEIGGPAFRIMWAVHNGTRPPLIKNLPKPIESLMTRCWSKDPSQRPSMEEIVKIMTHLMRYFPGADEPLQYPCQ
T8 sequence (Q15750 437-504 partner limits assumed): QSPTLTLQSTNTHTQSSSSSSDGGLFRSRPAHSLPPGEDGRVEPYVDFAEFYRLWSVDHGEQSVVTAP
Method: as §1

FGFR1 = biological target: T9, FGFR1 (Homo sapiens, UniProt P11362)
T9 construct: purchased Reaction Biology Europe GmbH (formerly ProQinase)
Method: as §1

CDK5/p25NCK = biological target: T10, CDK5/p25NCK (Homo sapiens, UniProt Q00535)
T10 construct: purchased Reaction Biology Europe GmbH (formerly ProQinase)
Method: as §1

NEK1 = biological target: T11, NEK1 (Homo sapiens, UniProt Q96PY6)
T11 construct: purchased Reaction Biology Europe GmbH (formerly ProQinase)
T11 sequence (Q96PY6 1-1258): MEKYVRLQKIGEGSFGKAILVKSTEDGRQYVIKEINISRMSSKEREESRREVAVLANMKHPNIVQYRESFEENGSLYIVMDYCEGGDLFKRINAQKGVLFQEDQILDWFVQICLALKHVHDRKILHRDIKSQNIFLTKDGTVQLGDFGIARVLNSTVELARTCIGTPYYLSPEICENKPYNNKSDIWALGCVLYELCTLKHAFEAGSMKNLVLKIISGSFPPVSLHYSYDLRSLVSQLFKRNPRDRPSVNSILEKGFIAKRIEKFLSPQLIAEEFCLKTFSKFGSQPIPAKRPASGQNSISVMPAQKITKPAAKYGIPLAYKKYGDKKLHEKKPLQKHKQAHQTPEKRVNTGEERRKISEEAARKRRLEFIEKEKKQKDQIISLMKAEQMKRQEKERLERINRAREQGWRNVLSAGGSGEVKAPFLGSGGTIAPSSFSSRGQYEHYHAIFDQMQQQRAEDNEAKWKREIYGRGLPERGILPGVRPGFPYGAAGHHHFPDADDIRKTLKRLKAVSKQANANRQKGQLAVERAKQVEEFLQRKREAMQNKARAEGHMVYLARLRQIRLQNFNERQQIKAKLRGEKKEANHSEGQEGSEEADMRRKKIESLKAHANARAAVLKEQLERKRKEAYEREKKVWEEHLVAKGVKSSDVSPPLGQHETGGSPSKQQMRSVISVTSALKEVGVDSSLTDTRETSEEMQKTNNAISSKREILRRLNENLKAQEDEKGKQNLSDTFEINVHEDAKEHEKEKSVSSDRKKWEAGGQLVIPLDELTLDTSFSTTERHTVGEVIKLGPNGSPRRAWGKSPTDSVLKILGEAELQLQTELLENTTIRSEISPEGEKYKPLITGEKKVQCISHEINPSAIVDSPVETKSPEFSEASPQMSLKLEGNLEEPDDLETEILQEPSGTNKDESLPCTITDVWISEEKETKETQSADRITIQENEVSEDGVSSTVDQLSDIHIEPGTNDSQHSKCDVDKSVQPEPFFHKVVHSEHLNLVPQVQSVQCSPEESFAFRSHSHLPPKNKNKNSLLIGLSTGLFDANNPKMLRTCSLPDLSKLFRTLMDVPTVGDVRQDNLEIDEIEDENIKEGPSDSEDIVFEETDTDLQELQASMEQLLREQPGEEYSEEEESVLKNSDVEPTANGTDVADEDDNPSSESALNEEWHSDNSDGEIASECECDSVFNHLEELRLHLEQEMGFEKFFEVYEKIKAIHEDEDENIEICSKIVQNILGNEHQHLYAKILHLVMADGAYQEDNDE
Method: as §1

T5 sequence (Q9H4B4 whole entry): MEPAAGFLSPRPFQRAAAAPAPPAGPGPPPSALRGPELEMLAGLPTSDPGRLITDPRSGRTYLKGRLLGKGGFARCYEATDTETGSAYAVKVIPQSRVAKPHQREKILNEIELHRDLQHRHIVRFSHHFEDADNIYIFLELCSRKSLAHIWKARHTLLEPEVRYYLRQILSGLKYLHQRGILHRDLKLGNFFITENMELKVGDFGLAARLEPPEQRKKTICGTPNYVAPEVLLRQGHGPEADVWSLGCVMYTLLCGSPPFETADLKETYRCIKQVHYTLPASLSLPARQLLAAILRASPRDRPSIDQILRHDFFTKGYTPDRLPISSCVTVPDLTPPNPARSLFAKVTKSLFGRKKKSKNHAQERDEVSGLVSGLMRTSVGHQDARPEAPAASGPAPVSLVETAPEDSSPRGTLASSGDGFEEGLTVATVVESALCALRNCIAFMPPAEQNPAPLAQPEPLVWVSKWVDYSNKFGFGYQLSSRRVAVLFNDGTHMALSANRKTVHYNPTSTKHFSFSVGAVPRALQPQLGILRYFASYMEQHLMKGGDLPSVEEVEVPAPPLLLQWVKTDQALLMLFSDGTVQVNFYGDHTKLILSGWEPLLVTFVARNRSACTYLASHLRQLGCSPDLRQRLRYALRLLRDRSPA
T9 sequence (P11362 22-822): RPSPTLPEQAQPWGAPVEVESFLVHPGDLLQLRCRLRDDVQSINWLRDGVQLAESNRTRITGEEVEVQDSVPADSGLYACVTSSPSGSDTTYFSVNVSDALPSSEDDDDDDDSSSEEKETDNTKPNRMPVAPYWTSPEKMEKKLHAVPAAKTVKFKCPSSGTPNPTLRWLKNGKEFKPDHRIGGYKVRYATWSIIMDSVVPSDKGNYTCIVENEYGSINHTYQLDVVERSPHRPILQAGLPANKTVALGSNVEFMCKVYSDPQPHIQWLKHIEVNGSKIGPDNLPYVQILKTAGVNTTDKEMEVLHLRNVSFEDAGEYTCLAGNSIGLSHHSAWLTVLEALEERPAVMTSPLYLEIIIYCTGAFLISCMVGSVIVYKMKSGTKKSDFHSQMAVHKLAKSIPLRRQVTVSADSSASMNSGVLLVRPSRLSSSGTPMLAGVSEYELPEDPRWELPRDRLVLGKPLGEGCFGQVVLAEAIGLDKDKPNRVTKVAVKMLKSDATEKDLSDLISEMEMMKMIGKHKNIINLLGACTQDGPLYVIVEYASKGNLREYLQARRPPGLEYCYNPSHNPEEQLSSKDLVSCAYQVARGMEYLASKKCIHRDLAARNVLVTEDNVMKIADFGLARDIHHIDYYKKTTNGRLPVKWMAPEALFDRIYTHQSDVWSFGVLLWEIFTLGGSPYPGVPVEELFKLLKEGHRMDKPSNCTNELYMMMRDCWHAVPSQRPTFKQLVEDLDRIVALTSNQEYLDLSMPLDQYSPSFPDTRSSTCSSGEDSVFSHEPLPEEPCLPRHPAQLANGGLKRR
T10 sequence (Q00535 whole entry): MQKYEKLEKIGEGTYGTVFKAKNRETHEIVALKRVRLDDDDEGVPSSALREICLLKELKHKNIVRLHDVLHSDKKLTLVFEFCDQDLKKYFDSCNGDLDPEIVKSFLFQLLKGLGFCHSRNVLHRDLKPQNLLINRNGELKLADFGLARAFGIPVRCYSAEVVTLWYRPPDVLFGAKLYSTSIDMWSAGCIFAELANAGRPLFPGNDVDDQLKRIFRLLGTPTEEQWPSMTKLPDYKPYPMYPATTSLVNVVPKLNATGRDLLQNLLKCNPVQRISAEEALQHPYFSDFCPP
T10 sequence (Q15078 99-307 partner limits assumed): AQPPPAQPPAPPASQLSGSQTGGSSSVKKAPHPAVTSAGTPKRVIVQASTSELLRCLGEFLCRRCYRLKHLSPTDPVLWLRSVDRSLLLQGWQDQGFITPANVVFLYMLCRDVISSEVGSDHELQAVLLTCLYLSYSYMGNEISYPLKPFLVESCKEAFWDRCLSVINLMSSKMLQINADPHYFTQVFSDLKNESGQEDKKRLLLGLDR
T7 sequence (P48729 whole entry): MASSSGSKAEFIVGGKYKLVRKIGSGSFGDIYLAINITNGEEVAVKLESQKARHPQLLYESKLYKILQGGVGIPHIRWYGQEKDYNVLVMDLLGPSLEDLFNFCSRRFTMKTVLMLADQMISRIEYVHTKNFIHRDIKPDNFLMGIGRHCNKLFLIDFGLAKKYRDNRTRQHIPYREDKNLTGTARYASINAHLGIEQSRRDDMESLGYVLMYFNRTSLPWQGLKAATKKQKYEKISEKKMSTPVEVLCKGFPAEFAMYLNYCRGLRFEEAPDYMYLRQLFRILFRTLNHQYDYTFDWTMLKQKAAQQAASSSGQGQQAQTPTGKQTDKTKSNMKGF
T2 sequence (Q13177 whole entry): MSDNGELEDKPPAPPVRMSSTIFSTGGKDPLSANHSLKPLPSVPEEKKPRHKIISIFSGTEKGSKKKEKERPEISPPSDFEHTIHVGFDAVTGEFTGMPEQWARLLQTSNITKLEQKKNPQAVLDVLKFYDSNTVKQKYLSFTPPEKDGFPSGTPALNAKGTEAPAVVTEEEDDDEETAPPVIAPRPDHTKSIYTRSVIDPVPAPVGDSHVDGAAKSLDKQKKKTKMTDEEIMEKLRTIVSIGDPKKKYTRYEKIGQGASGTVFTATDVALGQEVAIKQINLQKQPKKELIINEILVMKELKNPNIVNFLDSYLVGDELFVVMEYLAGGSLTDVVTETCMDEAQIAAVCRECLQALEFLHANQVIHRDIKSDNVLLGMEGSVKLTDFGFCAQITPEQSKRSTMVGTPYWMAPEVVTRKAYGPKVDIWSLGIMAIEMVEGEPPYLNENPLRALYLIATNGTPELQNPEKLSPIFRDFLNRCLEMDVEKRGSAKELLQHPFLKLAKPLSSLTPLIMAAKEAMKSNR
T4 sequence (P00533 25-1210): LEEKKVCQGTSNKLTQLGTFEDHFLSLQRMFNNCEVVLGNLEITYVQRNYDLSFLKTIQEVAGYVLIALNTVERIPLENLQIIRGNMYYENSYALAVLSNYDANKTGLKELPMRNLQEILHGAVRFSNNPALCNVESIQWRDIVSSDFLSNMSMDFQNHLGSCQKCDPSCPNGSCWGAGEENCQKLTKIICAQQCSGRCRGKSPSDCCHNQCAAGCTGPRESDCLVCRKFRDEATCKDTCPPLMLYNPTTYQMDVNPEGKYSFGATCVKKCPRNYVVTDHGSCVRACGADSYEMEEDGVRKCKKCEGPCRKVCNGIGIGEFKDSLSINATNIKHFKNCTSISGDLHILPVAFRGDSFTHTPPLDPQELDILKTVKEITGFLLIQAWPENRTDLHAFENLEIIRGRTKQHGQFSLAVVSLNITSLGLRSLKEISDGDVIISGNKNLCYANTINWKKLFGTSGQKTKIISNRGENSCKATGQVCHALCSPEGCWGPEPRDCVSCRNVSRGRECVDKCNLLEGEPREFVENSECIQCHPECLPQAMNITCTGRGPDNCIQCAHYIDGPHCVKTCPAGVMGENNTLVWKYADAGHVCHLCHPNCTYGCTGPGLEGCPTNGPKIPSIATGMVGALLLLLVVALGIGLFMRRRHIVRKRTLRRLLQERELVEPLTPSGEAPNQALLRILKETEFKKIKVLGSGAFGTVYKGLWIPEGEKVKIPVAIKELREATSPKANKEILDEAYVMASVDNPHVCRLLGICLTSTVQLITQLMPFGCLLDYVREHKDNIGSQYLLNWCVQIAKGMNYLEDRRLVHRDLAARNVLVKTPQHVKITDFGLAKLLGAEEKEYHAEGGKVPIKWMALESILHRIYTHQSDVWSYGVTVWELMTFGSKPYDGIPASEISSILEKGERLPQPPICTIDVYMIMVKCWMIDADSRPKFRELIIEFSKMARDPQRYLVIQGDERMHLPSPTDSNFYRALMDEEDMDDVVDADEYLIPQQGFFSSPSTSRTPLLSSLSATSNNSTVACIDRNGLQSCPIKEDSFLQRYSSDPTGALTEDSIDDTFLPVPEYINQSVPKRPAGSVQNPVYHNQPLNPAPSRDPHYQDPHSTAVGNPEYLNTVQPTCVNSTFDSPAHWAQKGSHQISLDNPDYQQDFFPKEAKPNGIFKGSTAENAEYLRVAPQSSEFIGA
T3 sequence (O96013 whole entry): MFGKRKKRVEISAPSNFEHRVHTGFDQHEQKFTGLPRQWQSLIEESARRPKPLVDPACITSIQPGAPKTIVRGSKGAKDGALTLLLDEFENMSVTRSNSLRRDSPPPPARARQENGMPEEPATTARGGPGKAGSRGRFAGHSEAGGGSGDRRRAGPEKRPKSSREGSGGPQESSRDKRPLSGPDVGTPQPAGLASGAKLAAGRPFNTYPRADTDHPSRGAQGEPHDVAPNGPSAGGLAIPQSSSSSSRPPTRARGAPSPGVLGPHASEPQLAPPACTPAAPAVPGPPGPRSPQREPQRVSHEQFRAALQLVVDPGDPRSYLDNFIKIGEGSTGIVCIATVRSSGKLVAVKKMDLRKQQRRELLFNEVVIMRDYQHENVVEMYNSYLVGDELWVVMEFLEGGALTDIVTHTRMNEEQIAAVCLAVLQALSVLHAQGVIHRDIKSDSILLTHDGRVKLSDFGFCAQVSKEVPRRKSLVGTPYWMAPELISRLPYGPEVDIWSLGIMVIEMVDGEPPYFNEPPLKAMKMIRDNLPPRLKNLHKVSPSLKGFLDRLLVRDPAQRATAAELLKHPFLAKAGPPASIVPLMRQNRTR

| Structure (SMILES) | residual kinase activity (HIPK4; 0.3 µM) | residual kinase activity (PAK2; 0.3 µM) | residual kinase activity (PAK4; 0.3 µM) | residual kinase activity (EGFR; 0.3 µM) | residual kinase activity (PLK3; 0.3 µM) | residual kinase activity (FYN; 0.3 µM) | residual kinase activity (CK1α1; 0.3 µM) | residual kinase activity (MAP3K7/MAP3K7IP1; 0.3 µM) | residual kinase activity (FGFR1; 0.3 µM) | residual kinase activity (CDK5/p25NCK; 0.3 µM) | residual kinase activity (NEK1; 0.3 µM) | also measured |
| --- | --- | --- | --- | --- | --- | --- | --- | --- | --- | --- | --- | --- |
| COc1ccnc2[nH]cc(-c3cc(N)nc(N)c3)c12 [meriolin 16] | 24 % of control | 93 % of control | 74 % of control | 90 % of control | 92 % of control | 69 % of control | 93 % of control | 17 % of control | 91 % of control | 1 % of control | 67 % of control | residual kinase activity (HIPK4; 0.03 µM): 74 % of control; residual kinase activity (PAK2; 0.03 µM): 92 % of control; residual kinase activity (PAK4; 0.03 µM): 86 % of control; residual kinase activity (EGFR; 0.03 µM): 109 % of control; residual kinase activity (PLK3; 0.03 µM): 95 % of control; residual kinase activity (FYN; 0.03 µM): 93 % of control; residual kinase activity (CK1α1; 0.03 µM): 129 % of control; residual kinase activity (MAP3K7/MAP3K7IP1; 0.03 µM): 54 % of control; residual kinase activity (FGFR1; 0.03 µM): 103 % of control; residual kinase activity (CDK5/p25NCK; 0.03 µM): 16 % of control; residual kinase activity (NEK1; 0.03 µM): 86 % of control |
| c1ccc(CNc2cc(-c3c[nH]c4ncccc34)ccn2)cc1 [meriolin 36] | 27 % of control | 71 % of control | 56 % of control | 107 % of control | 97 % of control | 22 % of control | 110 % of control | 15 % of control | 56 % of control | 0 % of control | 84 % of control | residual kinase activity (HIPK4; 3 µM): 2 % of control; residual kinase activity (PAK2; 3 µM): 17 % of control; residual kinase activity (PAK4; 3 µM): 16 % of control; residual kinase activity (EGFR; 3 µM): 53 % of control; residual kinase activity (PLK3; 3 µM): 87 % of control; residual kinase activity (FYN; 3 µM): 3 % of control; residual kinase activity (CK1α1; 3 µM): 51 % of control; residual kinase activity (MAP3K7/MAP3K7IP1; 3 µM): 5 % of control; residual kinase activity (FGFR1; 3 µM): 16 % of control; residual kinase activity (CDK5/p25NCK; 3 µM): 1 % of control; residual kinase activity (NEK1; 3 µM): 55 % of control |
